Experimental data as given in patent US10273503B2, “Compounds and methods for enhancing viral gene transfer to human hematopoietic cells” (UNIVERSTÉ DE MONTRÉAL, priority 2015, dated 2019).

Legend:
human CD34+ cells = assay: Expansion of human CD34+ cells (EC50, CD34+CD45RA- cell count); format: cell-based; conditions: concentration that results in a 50% increase in CD34+CD45RA- cell count compared to vehicle cultures (DMSO); for EC50: Homo sapiens, read-out: Biological data (EC50)*
human CD34+ CB cells = format: cell-based; conditions: for gene transfer efficiency to human CD34+ CB cells and CD34+ subsets, variants of Cmpd1: prestimulated 16 hours and transduced 6 hours in presence of compound, FACS after 3 additional days (FIGS. 16A, 16B)
Protocol: The cells were then exposed for 6 hours to a GFP lentiviral vector (10^6 iu/mL) in the same medium. […] At the end of the culture media, cells were harvested, stained for CD34 and analysed by flow cytometry.
The vector constructs were sequence-verified. […] Virus-containing supernatants were concentrated by ultracentrifugation to achieve titers of 0.5×10^9 to 5×10^9 infectious units/ml. Viral titers were determined by transducing HeLa cells with three dilutions of the lentiviral vector.
Umbilical cord blood (CB) and mobilized peripheral blood (mPB) cells were collected with consent according to procedures approved by the Research Ethics Board of the University of British Columbia. CD34^+ enriched adult bone marrow cells were purchased from […] Technologies. CD34^+ CB and mPB cells were enriched to >90% purity using first RosetteSep™ CD34 preenrichment cocktail ([…] Technologies) followed by positive selection using magnetic beads (EasySep kit, […] Technologies). In some cases additional enrichment was done by sorting CD34^+ cells using an Influx II sorter (BD Bioscience). […] All flow cytometric analysis was performed using a LSRII Fortessa® (BD Biosciences).

[1] = test system: macaque umbilical cord blood CD34+ cells; conditions: after transplantation of co-cultured macaque cord blood CD34+ cells

COC(=O)c1ccc2c(c1)[nH]c1nc(Cc3ccccc3)nc(N(C)CCCN3CCCCC3)c12 [Cmpd 3]
EC50 (human CD34+ cells): < 100 nM | gene transfer efficiency to human CD34+ CB cells and CD34+ subsets, variants of Cmpd1 (human CD34+ CB cells): increase gene transfer efficiency

COC(=O)c1ccc2c(c1)[nH]c1nc(Cc3ccccc3)nc(SCCCN3CCCCC3)c12 [Cmpd 6, methyl 2-benzyl-4-((3-(piperidin-1-yl)propyl)thio)-9H-pyrimido[4,5-b]indole-7-carboxylate]
EC50 (human CD34+ cells): 250 to 500 nM | gene transfer efficiency to human CD34+ CB cells and CD34+ subsets, variants of Cmpd1 (human CD34+ CB cells): increase gene transfer efficiency

CN(CCCNC(=O)CNC(=O)CNC(=O)CN)CCCNc1nc(Cc2ccccc2)nc2[nH]c3cc(-c4nnn(C)n4)ccc3c12 [Cmpd 5, 2-amino-N-(2-((2-((3-((3-((2-benzyl-7-(2-methyl-2H-tetrazol-5-yl)-9H-pyrimido[4,5-b]indol-4-yl)amino)propyl)(methyl)amino)propyl)amino)-2-oxoethyl)amino)-2-oxoethyl)acetamide]
EC50 (human CD34+ cells): 250 to 500 nM | gene transfer efficiency to human CD34+ CB cells and CD34+ subsets, variants of Cmpd1 (human CD34+ CB cells): increase gene transfer efficiency

COC(=O)c1ccc2c(c1)[nH]c1nc(-c3ccccc3)nc(NCCCN3CCCCC3)c12 [Cmpd 8, methyl 2-phenyl-4-((3-(piperidin-1-yl)propyl)amino)-9H-pyrimido[4,5-b]indole-7-carboxylate 2,2,2-trifluoroacetate]
Biological data (EC50)* (human CD34+ cells): inactive | gene transfer efficiency to human CD34+ CB cells and CD34+ subsets, variants of Cmpd1 (human CD34+ CB cells): not observed

COC(=O)c1ccc2c(c1)[nH]c1nc(Cc3cccc(F)c3)nc(NCCCN3CCCCC3)c12 [Cmpd 4]
EC50 (human CD34+ cells): < 100 nM | gene transfer efficiency to human CD34+ CB cells and CD34+ subsets, variants of Cmpd1 (human CD34+ CB cells): increase gene transfer efficiency

CC(C)n1cnc2c(NCCc3ccc(O)cc3)nc(-c3csc4ccccc34)nc21 [SR1, StemRegenin 1, reference compound]
proportion of primate CD45+ cells in the blood of transplanted mice [1]: not obtained | enhancement of lentiviral-mediated gene transfer (in words) (human CD34+ CB cells; SR1 0.75 μM, assessed 3 days post-infection on CD34+ cells from cord blood): not observed

CCCOC(=O)c1ccc2c(c1)[nH]c1ncnc(NCCCN3CCCCC3)c12 [Cmpd 7, propyl 4-((3-(piperidin-1-yl)propyl)amino)-9H-pyrimido[4,5-b]indole-7-carboxylate]
EC50 (human CD34+ cells): > 1000 nM | gene transfer efficiency to human CD34+ CB cells and CD34+ subsets, variants of Cmpd1 (human CD34+ CB cells): not observed

COC(=O)c1cnc2c(c1)[nH]c1nc(Cc3ccccc3C)nc(NCCCN3CCCCC3)c12 [Cmpd 66]
EC50 (human CD34+ cells): 250 to 500 nM

COC(=O)c1ccc2c(c1)[nH]c1ncnc(NCCCN3CCCC3)c12 [Cmpd 9]
EC50 (human CD34+ cells): 100 to 250 nM
